Source: US10808041B2, “Lincosamides universal monoclonal antibody hybridoma cell strain and application thereof” (Jiangnan University, priority 2017, dated 2020)

Tested on: lincosamides universal monoclonal antibody secreted by monoclonal cell strain CGMCC No. 14691
Assay: indirect competitive ELISA with coating antigen Lin-OVA
Assay type: binding, BALB/c mice
Conditions: lincosamides standard substances competing with coating antigen Lin-OVA
Protocol: The specific ELISA procedure was as follows:
Coating: the coating antigen was subjected to gradient dilution with a 0.05 M pH 9.6 carbonate buffer solution, and incubated at 37° C. for 2 h at 100 μL/well.
Washing: a solution in a plate was decanted, and 200 μL of a PBST solution was injected into each well, placed on a shaker to shake for 3 min, spin-dried, and washed 3 times. The following washing method was the same.
Blocking: After patting dry, 200 μL of a blocking buffer was added to each well, and incubated at a temperature of 37° C. for 2 h. After washing, the product was dried to be ready for use.
Color development: the ELISA plate was taken out, and fully washed, and then 100 μL of a color developing solution (the ratio of TMB to a substrate liquid is 1:5) was added to each well to react at a temperature of 37° C. for 15 min in the dark.
Stopping and determination: the ELISA plate was taken out, 50 μL of a stop solution (2 mol/L sulfuric acid) was added to each well to stop the reaction, and then the absorbance A450 of each well was determined by an ELISA reader.

Row | Structure (SMILES) | half inhibition concentration (IC50) of the monoclonal antibody
1 | CC[C@@H]1CCN[C@H](C(=O)N[C@@H]([C@H]2O[C@H](SC)[C@H](O)[C@@H](O)[C@H]2O)[C@H](C)Cl)C1 [pirlimycin] | 0.019314 µg/mL
2 | CCC[C@@H]1C[C@@H](C(=O)N[C@@H]([C@H]2O[C@H](SC)[C@H](O)[C@@H](O)[C@H]2O)[C@@H](C)O)N(C)C1 [lincomycin] | 0.004339 µg/mL
